# Data published in PMC12157126, “Saturation kinetics and specificity of transporters for L-arginine and asymmetric dimethylarginine (ADMA) at the blood-brain and blood-CSF barriers” (PLOS One, 2025).
# “And” between values parts separate entries of the source, which are not always exact repeats. Identical values can stand only once. Like-named read-outs stand apart in the source and are kept apart here.
# Columns and labels:
# [1] = system: blood-brain and blood-CSF barriers; experiment: Self-inhibition experiments: [3H]-ADMA uptake with 0.5-500 μM unlabelled ADMA and kinetic constants (Km, Vmax, Kd); type: in vivo, adult male BALB/c mice; conditions: for Km: read-out: Km (half-saturation constant) of [3H]-ADMA influx
# Excerpt: At the end of the perfusion period a CSF sample was taken from the cisterna magna, the animal was decapitated, the brain removed and samples taken under a Leica S4E L2 stereomicroscope (Leica; Buckinghamshire, UK). The samples included the frontal cortex, caudate nucleus, occipital cortex, hippocampus, hypothalamus, thalamus, pons and cerebellum. The circumventricular organs (CVOs) including the choroid plexus, pituitary gland and pineal gland were also sampled. Brain samples were also taken for capillary depletion analysis.
# A series of single-time point experiments involved varying the unlabelled concentration of ADMA in the artificial plasma and measuring the [^3H]-ADMA uptake into the brain regions, capillary depletion samples, CVOs and CSF after 10 min of perfusion. […] This enabled calculation of the kinetic constants; Vmax (the maximal influx rate of the saturable component), Km (the half-saturation constant) and Kd (the constant of non-saturable diffusion).
# In the case where the uptake of the radiolabelled test amino acid is examined in the presence of various unlabelled concentrations of the same test solute, Kin, can be defined as in equation 4:
# Kin= Vmax/Km+ Cpl+ Kd (5)
# Unidirectional ADMA flux (Jin) into the brain (nmol.min^-1.g^-1) and CSF (nmol.min^-1.ml^-1) was determined using equations 6 and 7:
# Jin=VmaxCpl/Km+ Cpl+ KdCpl (8)
# This constant of non-saturable diffusion was then used to calculate a non-saturable flux which could be subtracted from the total flux to determine the saturable flux. […] In some cases, there was no measurable non-saturable component and so estimates of Vmax and Km were obtained from plots of total flux, which was equal to the saturable flux.
# [2] = system: blood-brain and blood-CSF barriers; experiment: In situ brain/choroid plexus perfusion with capillary depletion: CNS uptake of [3H]-ADMA in absence and presence of transporter inhibitors; conditions: for RBrain, [3H]-ADMA alone: 10 min perfusion, mean±SEM; for RBrain, [3H]-ADMA alone / uptake of [3H]-ADMA: [14C]-sucrose corrected; for uptake of [3H]-ADMA: S14 Fig
# Procedure: The in situ brain/choroid plexus perfusion method was performed as previously described and will only be briefly detailed here. […] At the end of the perfusion period a CSF sample was taken from the cisterna magna, the animal was decapitated, the brain removed and samples taken under a Leica S4E L2 stereomicroscope (Leica; Buckinghamshire, UK). […] The circumventricular organs (CVOs) including the choroid plexus, pituitary gland and pineal gland were also sampled. Brain samples were also taken for capillary depletion analysis.
# Both the physiological capillary depletion buffer and dextran solution were maintained at 4 °C to halt any cell metabolism and transport processes, and to reduce any cellular or protein damage due to heat generated from the homogenisation process. The whole brain homogenate was then taken for dextran density centrifugation (5,400 x g) and 4 °C to produce an endothelial cell-enriched pellet and supernatant containing brain parenchyma.
# The transporter proteins these inhibitors target are listed in S1 Table in S1 File.
# % change=RTissue−RInhibition /RTissue× 100 (2)
compound,measurement,setting,value
"CN(C)C(N)=NCCC[C@H](N)C(=O)O [[^3H]-ADMA, asymmetric dimethylarginine]",non-saturable component of [3H]-ADMA flux,[1]; CSF,no non-saturable component
same,Vmax (maximal influx rate of the saturable component) of [3H]-ADMA,"[1]; CSF, from total flux",2.07 ± 0.38 nmol/min/g and 2.067 ± 0.38 nmol/min/g
same,Km,"[1]; CSF, from total flux",30.6 ± 25.4 µM
same,Kd (constant of non-saturable diffusion) of [3H]-ADMA,[1]; caudate nucleus,2.82 µL/min/g
same,Vmax (maximal influx rate of the saturable component) of [3H]-ADMA,[1]; caudate nucleus,0.423 ± 0.061 nmol/min/g
same,Km,"[1]; caudate nucleus, saturable flux, sucrose space increased at 500 µM ADMA",25.2 ± 16.6 µM
same,Kd (constant of non-saturable diffusion) of [3H]-ADMA,[1]; cerebellum,5.20 µL/min/g
same,Vmax (maximal influx rate of the saturable component) of [3H]-ADMA,[1]; cerebellum,0.235 ± 0.011 nmol/min/g
same,Km,"[1]; cerebellum, saturable flux, sucrose space increased at 500 µM ADMA",24.7 ± 5.32 µM
same,RTissue,"[1]; choroid plexuses, pituitary gland and pineal gland, 10 minutes",> 100%
same,Vmax (maximal influx rate of the saturable component) of [3H]-ADMA,[1]; frontal cortex,0.307 ± 0.017 nmol/min/g
same,Km,"[1]; frontal cortex, saturable flux",29.1 ± 7.19 µM
same,Kd (constant of non-saturable diffusion) of [3H]-ADMA,"[1]; frontal cortex, slope of total flux at 100 and 500 μM",4.40 µL/min/g
same,Kd (constant of non-saturable diffusion) of [3H]-ADMA,[1]; hippocampus,3.23 µL/min/g
same,Vmax (maximal influx rate of the saturable component) of [3H]-ADMA,[1]; hippocampus,0.24 ± 0.02 nmol/min/g
same,Km,"[1]; hippocampus, saturable flux, sucrose space increased at 500 µM ADMA",15.8 ± 6.86 µM
same,Kd (constant of non-saturable diffusion) of [3H]-ADMA,[1]; homogenate,3.34 µL/min/g
same,Vmax (maximal influx rate of the saturable component) of [3H]-ADMA,[1]; homogenate,0.155 ± 0.013 nmol/min/g
same,Km,"[1]; homogenate, saturable flux",13.6 ± 5.26 µM
same,Kd (constant of non-saturable diffusion) of [3H]-ADMA,[1]; hypothalamus,5.18 µL/min/g
same,Vmax (maximal influx rate of the saturable component) of [3H]-ADMA,[1]; hypothalamus,0.482 ± 0.049 nmol/min/g
same,Km,"[1]; hypothalamus, saturable flux",23.2 ± 10.8 µM
same,Kd (constant of non-saturable diffusion) of [3H]-ADMA,[1]; occipital cortex,4.65 µL/min/g
same,Vmax (maximal influx rate of the saturable component) of [3H]-ADMA,[1]; occipital cortex,0.321 ± 0.034 nmol/min/g
same,Km,"[1]; occipital cortex, saturable flux, sucrose space increased at 500 µM ADMA",25.9 ± 12.6 µM
same,Kd (constant of non-saturable diffusion) of [3H]-ADMA,[1]; pellet,0.38 µL/min/g
same,Vmax (maximal influx rate of the saturable component) of [3H]-ADMA,[1]; pellet,0.071 ± 0.008 nmol/min/g
same,Km,"[1]; pellet, saturable flux",34 ± 16.8 µM
same,Kd (constant of non-saturable diffusion) of [3H]-ADMA,[1]; pons,3.62 µL/min/g
same,Vmax (maximal influx rate of the saturable component) of [3H]-ADMA,[1]; pons,0.325 ± 0.043 nmol/min/g
same,Km,"[1]; pons, saturable flux, sucrose space increased at 500 µM ADMA",18.2 ± 10.8 µM
same,Kd (constant of non-saturable diffusion) of [3H]-ADMA,[1]; supernatant,2.35 µL/min/g
same,Vmax (maximal influx rate of the saturable component) of [3H]-ADMA,[1]; supernatant,0.208 ± 0.036 nmol/min/g
same,Km,"[1]; supernatant, saturable flux",68.5 ± 44.4 µM
same,Kd (constant of non-saturable diffusion) of [3H]-ADMA,[1]; thalamus,4.33 µL/min/g
same,Vmax (maximal influx rate of the saturable component) of [3H]-ADMA,[1]; thalamus,0.278 ± 0.033 nmol/min/g
same,Km,"[1]; thalamus, saturable flux, sucrose space increased at 500 µM ADMA",18.5 ± 9.89 µM
same,"uptake into pellet, times lower than into choroid plexus",[2]; 10 minutes,124.2 times
same,"RBrain, [3H]-ADMA alone",[2]; CSF,26.72±8.84 ml.100g^-1
same,"RBrain, [3H]-ADMA alone",[2]; caudate nucleus,24.07±2.92 ml.100g^-1
same,"RBrain, [3H]-ADMA alone",[2]; cerebellum,17.65±1.52 (n=4) ml.100g^-1
same,"RBrain, [3H]-ADMA alone",[2]; choroid plexus,260.9±42.45 ml.100g^-1
same,uptake of [3H]-ADMA,"[2]; choroid plexus, 10 minutes",260.85 ± 42.45 ml.100g^-1
same,"RBrain, [3H]-ADMA alone",[2]; frontal cortex,24.94±3.50 ml.100g^-1
same,uptake of [3H]-ADMA,"[2]; frontal cortex, 10 minutes",24.94 ± 3.50 ml.100g^-1
same,"RBrain, [3H]-ADMA alone",[2]; hippocampus,21.74±1.75 ml.100g^-1
same,"RBrain, [3H]-ADMA alone",[2]; homogenate (capillary depletion),17.70±3.10 (n=4) ml.100g^-1
same,"RBrain, [3H]-ADMA alone",[2]; hypothalamus,30.42 ± 2.98 ml.100g^-1
same,"RBrain, [3H]-ADMA alone",[2]; occipital cortex,22.52±1.65 ml.100g^-1
same,"RBrain, [3H]-ADMA alone",[2]; pellet (capillary depletion),2.62±0.88 (n=4) ml.100g^-1
same,"RBrain, [3H]-ADMA alone",[2]; pineal gland,194.1±48.46 ml.100g^-1
same,"RBrain, [3H]-ADMA alone",[2]; pituitary gland,182.9±32.28 ml.100g^-1
same,"RBrain, [3H]-ADMA alone",[2]; pons,24.64±3.44 ml.100g^-1
same,"RBrain, [3H]-ADMA alone",[2]; supernatant (capillary depletion),10.03 ± 1.06 (n=4) ml.100g^-1
same,"RBrain, [3H]-ADMA alone",[2]; thalamus,21.09±1.74 ml.100g^-1
"N[C@@H](Cc1ccccc1)C(=O)O [L-phenylalanine, reference compound]",inhibition of [3H]-ADMA uptake,"[2]; phenylalanine, some regions of the brain and the choroid plexus (up to)",up to 66.4%
"COc1ccc2c3c([nH]c2c1)C(C)=NCC3 [Harmaline, harmaline, reference compound]",effect on [3H]-ADMA uptake,[2]; brain and choroid plexus,significantly inhibited
same,effect on [3H]-ADMA uptake,[2]; brain homogenate or supernatant,did not significantly affect
